Measurements reported in patent US20240158446A1, “CYCLIC COMPOUND HAVING SELECTIVE INHIBITORY ACTION ON KRAS OVER HRAS AND NRAS” (CHUGAI SEIYAKU KABUSHIKI KAISHA, priority 2021, published 2024).
Like-named read-outs stand apart in the source and are kept apart here. Where a SMILES comes first, the peptide text is derived from it. Bridges are numbered along the chain shown (N, C = ends). [ ]: non-standard residue; d: D form. The star is where a group is joined. hPhe(3-Cl-4-CF3) = N[C@@H](CCc1ccc(C(F)(F)F)c(Cl)c1)C(=O)O; NPrPhe(4-CF3) = CCCN[C@@H](Cc1ccc(C(F)(F)F)cc1)C(=O)O; NEtPhe(4-Me) = CCN[C@@H](Cc1ccc(C)cc1)C(=O)O; NMeGly(cPent) = CN[C@H](C(=O)O)C1CCCC1; Hyp = O=C(O)[C@@H]1C[C@@H](O)CN1; NMeD = CN[C@@H](CC(=O)O)C(=O)O; NMeL = CN[C@@H](CC(C)C)C(=O)O; Oxazolidin(3-yl) = C1CN(*)CO1; Morpholide = C1CN(*)CCO1; NMeA = CN[C@@H](C)C(=O)O; Ac5c = NC1(C(=O)O)CCCC1; Aze = O=C(O)[C@@H]1CCN1; NEtG = CCNCC(=O)O; Sar = CNCC(=O)O

Legend:
[1] = biological target: GDP-bound NRAS wild-type protein (Homo sapiens, UniProt P01111); assay: Binding to NRAS by surface plasmon resonance (SPR), Single Cycle Kinetics; details: for NRAS/KRAS (ratio of KD value for NRAS to KD value for KRAS) / NRAS/KRAS (ratio of KD value with respect to NRAS to KD value with respect to KRAS): SPR, GDP-bound NRAS wild-type protein vs GDP-bound KRAS wild-type protein
[2] = biological target: GDP-bound KRAS wild-type protein (Homo sapiens, UniProt P01116); assay: Binding to KRAS by surface plasmon resonance (SPR), Single Cycle Kinetics; details: GDP-bound KRAS wild-type protein, read-out: KRAS KD
[3] = biological target: GDP-bound HRAS wild-type protein (Homo sapiens, UniProt P01112); assay: Binding to HRAS by surface plasmon resonance (SPR), Single Cycle Kinetics; details: for HRAS/KRAS (ratio of KD value for HRAS to KD value for KRAS) / HRAS/KRAS (ratio of KD value with respect to HRAS to KD value with respect to KRAS): SPR, GDP-bound HRAS wild-type protein vs GDP-bound KRAS wild-type protein
[4] = SPR Single Cycle Kinetics, 1:1 binding model

Chain of GDP-bound HRAS wild-type protein (P01112 whole entry): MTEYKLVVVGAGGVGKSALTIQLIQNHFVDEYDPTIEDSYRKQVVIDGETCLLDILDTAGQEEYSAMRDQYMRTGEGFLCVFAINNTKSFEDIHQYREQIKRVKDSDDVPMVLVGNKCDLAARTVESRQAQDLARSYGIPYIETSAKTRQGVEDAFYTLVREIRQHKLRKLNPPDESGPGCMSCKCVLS
Chain of GDP-bound NRAS wild-type protein (P01111 whole entry): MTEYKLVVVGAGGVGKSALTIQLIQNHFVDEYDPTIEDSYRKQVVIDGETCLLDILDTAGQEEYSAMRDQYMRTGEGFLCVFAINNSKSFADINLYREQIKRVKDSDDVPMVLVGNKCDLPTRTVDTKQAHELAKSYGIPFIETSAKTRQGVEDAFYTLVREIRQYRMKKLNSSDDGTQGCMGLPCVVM
Chain of GDP-bound KRAS wild-type protein (P01116 whole entry): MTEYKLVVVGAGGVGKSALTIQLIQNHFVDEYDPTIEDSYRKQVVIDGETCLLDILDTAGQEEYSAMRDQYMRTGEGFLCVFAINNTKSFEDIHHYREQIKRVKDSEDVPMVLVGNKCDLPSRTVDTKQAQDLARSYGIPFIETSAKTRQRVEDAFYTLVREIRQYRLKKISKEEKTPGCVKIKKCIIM

| Kd [2, 4] [nM] | Compound | NRAS/KRAS (ratio of KD value for NRAS to KD value for KRAS) [1] | HRAS/KRAS (ratio of KD value for HRAS to KD value for KRAS) [3] | other results |
| --- | --- | --- | --- | --- |
| – | CC[C@H](C)[C@@H]1NC(=O)[C@H](CC(C)C)N(C)C(=O)C[C@@H](C(=O)N2CCOCC2)N(CC)C(=O)[C@H](C2CCCC2)N(C)C(=O)C2(CCC2)NC(=O)[C@@H]2[C@H](O)CCN2C(=O)[C@H](CCc2cc(F)c(C(F)(F)F)c(F)c2)NC(=O)CN(C)C(=O)[C@H](Cc2ccc(C(F)(F)F)cc2)N2CCCCC[C@@H](C2=O)N(C)C(=O)CN(C)C1=O [PP0955] | A (a compound having 10 or more and less than 20 is denoted as A) | A (a compound having 10 or more and less than 20 is denoted as A) | Kd ([2]; SPR, Single Cycle Kinetics): 19 nM |
| 0.15 | CCCN1C(=O)CN(C)C(=O)[C@@H]2CCN2C(=O)[C@H]([C@@H](C)CC)NC(=O)[C@H](CC(C)C)N(C)C(=O)C[C@@H](C(=O)N(C)C)N(C)C(=O)[C@H](C2CCCC2)N(C)C(=O)C2(CCCC2)NC(=O)[C@@H]2C[C@@H](OCC)CN2C(=O)[C@H](CCc2ccc(C(F)(F)F)c(Cl)c2)NC(=O)CN(C)C(=O)[C@@H]1Cc1ccc(C(F)(F)F)cc1 [PP0433] ([NMeL]I[Aze][Sar][NPrPhe(4-CF3)][Sar][hPhe(3-Cl-4-CF3)][Hyp](Et)[Ac5c][NMeGly(cPent)][NMeD]-NMe2; lactam N-11) | – | – | NRAS/KRAS (ratio of KD value with respect to NRAS to KD value with respect to KRAS) [1]: B (a compound having 3 or more and less than 10 is denoted as B); HRAS/KRAS (ratio of KD value with respect to HRAS to KD value with respect to KRAS) [3]: B (a compound having 3 or more and less than 10 is denoted as B) |
| – | C#CC[C@H]1C(=O)N[C@@H]([C@@H](C)CC)C(=O)N(C)CC(=O)N(C)[C@H]2C/C=C\CCN(C2=O)[C@@H](Cc2ccc(C(F)(F)F)cc2)C(=O)N(C)CC(=O)N[C@@H](CCc2cc(F)c(C(F)(F)F)c(F)c2)C(=O)N2C[C@H](OCC)C[C@H]2C(=O)NC2(CC(C)(C)C2)C(=O)N(C)[C@@H](C2CCCC2)C(=O)N(C)[C@H](C(=O)N(C)CC)CC(=O)N1C [PP2073] | A (a compound having 10 or more and less than 20 is denoted as A) | A (a compound having 10 or more and less than 20 is denoted as A) | Kd ([2]; SPR, Single Cycle Kinetics): 0.078 nM |
| – | CCO[C@H]1CCN2C(=O)[C@H](CCc3cc(F)c(C(F)(F)F)c(F)c3)NC(=O)CN(C)C(=O)[C@H](Cc3ccc(C(F)(F)F)cc3)N3CCCCC[C@@H](C3=O)N(C)C(=O)CN(C)C(=O)[C@H]([C@@H](C)CC)NC(=O)[C@H](CC(C)C)N(C)C(=O)C[C@@H](C(=O)N3CCOCC3)N(C)C(=O)[C@H](C3CCCC3)N(C)C(=O)C3(CCC3)NC(=O)[C@H]12 [PP1068] | A (a compound having 10 or more and less than 20 is denoted as A) | B (a compound having 3 or more and less than 10 is denoted as B) | Kd ([2]; SPR, Single Cycle Kinetics): 1.1 nM |
| 0.073 | CC[C@H](C)[C@@H]1NC(=O)[C@H](CC(C)C)N(C)C(=O)C[C@@H](C(=O)N2CCOCC2)N(C)C(=O)[C@H](C2CCCC2)N(C)C(=O)C2(CCCC2)NC(=O)[C@@H]2C[C@@H](O)CN2C(=O)[C@H](CCc2ccc(C(F)(F)F)c(Cl)c2)NC(=O)CN(C)C(=O)[C@H](Cc2ccc(C)cc2)N(CC)C(=O)[C@@H]2CCN2C(=O)[C@H](C)N(C)C1=O [PP0013] ([NMeL]I[NMeA][Aze][NEtPhe(4-Me)][Sar][hPhe(3-Cl-4-CF3)][Hyp][Ac5c][NMeGly(cPent)][NMeD]-Morpholide; lactam N-11) | C (A compound having a KD ratio of 0.1 or more and less than 3 is denoted as C) | C (A compound having a KD ratio of 0.1 or more and less than 3 is denoted as C) | – |
| 2.1 | CCO[C@@H]1C[C@H]2C(=O)NC3(CCC3)C(=O)N(C)[C@@H](C3CCCC3)C(=O)N(C)[C@H](C(=O)N(C)C)CC(=O)N(C)[C@@H](CC3CCCC3)C(=O)N[C@@H]([C@@H](C)CC)C(=O)N(C)CC(=O)N(C)[C@H]3C/C=C\CCN(C3=O)[C@@H](Cc3ccc(C)cc3)C(=O)N(C)CC(=O)N[C@@H](CCc3ccc(C4CC4)c(C)c3)C(=O)N2C1 [PP2685] | – | – | NRAS/KRAS (ratio of KD value with respect to GDP-bound NRAS wild-type protein to KD value with respect to KRAS) ([1]; SPR KD ratio NRAS/KRAS, class symbols): A (a compound having 10 or more and less than 20 is denoted as A); HRAS/KRAS (ratio of KD value with respect to GDP-bound HRAS wild-type protein to KD value with respect to KRAS) ([3]; SPR KD ratio HRAS/KRAS, class symbols): A (a compound having 10 or more and less than 20 is denoted as A) |
| 1.7 | CCCN1C(=O)CN(C)C(=O)CN(C)C(=O)[C@H]([C@@H](C)CC)NC(=O)[C@H](CC(C)C)N(C)C(=O)C[C@@H](C(=O)N2CCOCC2)N(C)C(=O)[C@H](C2CCCC2)N(C)C(=O)[C@@H](C)NC(=O)[C@@H]2CCCN2C(=O)[C@H](CCc2ccc(C(F)(F)F)c(Cl)c2)NC(=O)CN(C)C(=O)[C@@H]1Cc1ccc(C(F)(F)F)cc1 [PP0150] ([NMeL]I[Sar][Sar][NPrPhe(4-CF3)][Sar][hPhe(3-Cl-4-CF3)]P[dA][NMeGly(cPent)][NMeD]-Morpholide; lactam N-11) | B (a compound having 3 or more and less than 10 is denoted as B) | C (A compound having a KD ratio of 0.1 or more and less than 3 is denoted as C) | – |
| 0.02 | CCO[C@@H]1C[C@H]2C(=O)NC3(CCC3)C(=O)N(C)[C@@H](C3CCCC3)C(=O)N(C)[C@H](C(=O)N3CCOCC3)CC(=O)N(C)[C@@H](COC)C(=O)N[C@@H]([C@@H](C)CC)C(=O)N(C)CC(=O)N(C)[C@H]3CCCCN(C3=O)[C@@H](Cc3ccc(C(F)(F)F)cc3)C(=O)N(C)CC(=O)N[C@@H](CCc3cc(F)c(C(F)(F)F)c(F)c3)C(=O)N2C1 [PP0719] | – | – | NRAS/KRAS (ratio of KD value with respect to NRAS to KD value with respect to KRAS) [1]: C (A compound having a KD ratio of 0.1 or more and less than 3 is denoted as C); HRAS/KRAS (ratio of KD value with respect to HRAS to KD value with respect to KRAS) [3]: B (a compound having 3 or more and less than 10 is denoted as B) |
| – | CCO[C@@H]1C[C@H]2C(=O)NC3(CCC3)C(=O)N(C)[C@@H](C3CCCC3)C(=O)N(C)[C@H](C(=O)N(C)CCOC)CC(=O)N(C)[C@@H](CC)C(=O)N[C@@H]([C@@H](C)CC)C(=O)N(C)CC(=O)N(C)[C@H]3C/C=C\CCN(C3=O)[C@@H](Cc3ccc(C(F)(F)F)cc3)C(=O)N(C)CC(=O)N[C@@H](CCc3ccc(C(F)(F)F)c(OC)c3)C(=O)N2C1 [PP1321, (2S,8S,12R,14S,20S,23S,27S,30S,36S,38Z)-20-cyclopentyl-12-ethoxy-27-ethyl-N-(2-methoxyethyl)-8-[2-[3-methoxy-4-(trifluoromethyl)phenyl]ethyl]-N,4,19,22,26,32,35-heptamethyl-30-[(1S)-1-methylpropyl]-3,6,9,15,18,21,25,28,31,34,42-undecaoxo-2-[[4-(trifluoromethyl)phenyl]methyl]spiro[1,4,7,10,16,19,22,26,29,32,35-undecazatricyclo[34.5.1.0^10,14]dotetracont-38-ene-17,1′-cyclobutane]-23-carboxamide] | – | – | NRAS/KRAS (ratio of KD value for NRAS to KD value for KRAS) ([1]; KD ratio class): A (a compound having 10 or more and less than 20 is denoted as A); Kd ([2]; SPR, Single Cycle Kinetics, 1:1 binding model): 0.08 nM; HRAS/KRAS (ratio of KD value for HRAS to KD value for KRAS) ([3]; KD ratio class): B (a compound having 3 or more and less than 10 is denoted as B) |
| 1.7 | CCCN1C(=O)CN(C)C(=O)CN(CC)C(=O)[C@H]([C@@H](C)CC)NC(=O)[C@H](CC(C)C)N(C)C(=O)C[C@@H](C(=O)N2CCOCC2)N(C)C(=O)[C@H](C2CCCC2)N(C)C(=O)C2(CCCC2)NC(=O)[C@@H]2CCN2C(=O)[C@H](CCc2ccc(C(F)(F)F)c(Cl)c2)NC(=O)CN(C)C(=O)[C@@H]1Cc1ccc(C(F)(F)F)cc1 [PP0294] ([NMeL]I[NEtG][Sar][NPrPhe(4-CF3)][Sar][hPhe(3-Cl-4-CF3)][Aze][Ac5c][NMeGly(cPent)][NMeD]-Morpholide; lactam N-11) | B (a compound having 3 or more and less than 10 is denoted as B) | C (A compound having a KD ratio of 0.1 or more and less than 3 is denoted as C) | – |
| 11 | CCO[C@@H]1C[C@H]2C(=O)NC3(CCC(F)(F)CC3)C(=O)N(C)[C@@H](C3CCCC3)C(=O)N(C)[C@H](C(=O)N3CCOCC3)CC(=O)N(C)[C@@H](CC(C)C)C(=O)N[C@@H]([C@@H](C)CC)C(=O)N(C)CC(=O)N(C)[C@H]3CCCCCN(C3=O)[C@@H](Cc3ccc(C(F)(F)F)cc3)C(=O)N(C)CC(=O)N[C@@H](CCc3cc(F)c(C(F)(F)F)c(F)c3)C(=O)N2C1 [PP0728] | – | – | NRAS/KRAS (ratio of KD value with respect to NRAS to KD value with respect to KRAS) [1]: B (a compound having 3 or more and less than 10 is denoted as B); HRAS/KRAS (ratio of KD value with respect to HRAS to KD value with respect to KRAS) [3]: B (a compound having 3 or more and less than 10 is denoted as B) |
| 0.17 | CCCN1C(=O)[C@@H]2CCN2C(=O)[C@H](C)N(C)C(=O)[C@H]([C@@H](C)CC)NC(=O)[C@H](CC(C)C)N(C)C(=O)C[C@@H](C(=O)N2CCOC2)N(C)C(=O)[C@H](C2CCCC2)N(C)C(=O)C2(CCCC2)NC(=O)[C@@H]2CCCN2C(=O)[C@H](CCc2ccc(C(F)(F)F)c(Cl)c2)NC(=O)CN(C)C(=O)[C@@H]1Cc1ccc(C(F)(F)F)cc1 [PP0183] ([NMeL]I[NMeA][Aze][NPrPhe(4-CF3)][Sar][hPhe(3-Cl-4-CF3)]P[Ac5c][NMeGly(cPent)][NMeD]-{Oxazolidin(3-yl)}; lactam N-11) | C (A compound having a KD ratio of 0.1 or more and less than 3 is denoted as C) | B (a compound having 3 or more and less than 10 is denoted as B) | – |
